Reference: the supplement of paper PMC11451515

Test system: SEM cells
Assay: cell viability relative to DMSO control; higher = less cytotoxic
Details: 48 h
Method in brief: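 Viability was expressed as a per-plate percentage of DMSO wells, with cell-free wells as background. Leukemia cells (NOMO1 or SEM at 500 cells/well, P12-Ichikawa at 1000 cells/well) were adapted for at least four passages in each medium and seeded in 1536-well plates (5 μl). Library compounds in DMSO were pin-dosed over an 11-point threefold series from 47 μM to 0.79 nM, and CellTiter-Glo One luminescence was read after 48 h at 37°C.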

[1] = HPLM + 10% dialyzed FBS, 0.000781 µM
[2] = HPLM + 10% dialyzed FBS, 0.00234 µM
[3] = HPLM + 10% dialyzed FBS, 0.00702 µM
[4] = HPLM + 10% dialyzed FBS, 0.0211 µM
[5] = HPLM + 10% dialyzed FBS, 0.0632 µM
[6] = HPLM + 10% dialyzed FBS, 0.19 µM
[7] = HPLM + 10% dialyzed FBS, 0.569 µM
[8] = HPLM + 10% dialyzed FBS, 1.71 µM
[9] = HPLM + 10% dialyzed FBS, 5.12 µM
[10] = HPLM + 10% dialyzed FBS, 15.4 µM
[11] = HPLM + 10% dialyzed FBS, 46.1 µM
[12] = RPMI 5 mM glucose + 10% FBS, 0.000781 µM
[13] = RPMI 5 mM glucose + 10% FBS, 0.00234 µM
[14] = RPMI 5 mM glucose + 10% FBS, 0.00702 µM
[15] = RPMI 5 mM glucose + 10% FBS, 0.0211 µM
[16] = RPMI 5 mM glucose + 10% FBS, 0.0632 µM
[17] = RPMI 5 mM glucose + 10% FBS, 0.19 µM
[18] = RPMI 5 mM glucose + 10% FBS, 0.569 µM
[19] = RPMI 5 mM glucose + 10% FBS, 1.71 µM
[20] = RPMI 5 mM glucose + 10% FBS, 5.12 µM
[21] = RPMI 5 mM glucose + 10% FBS, 15.4 µM
[22] = RPMI 5 mM glucose + 10% FBS, 46.1 µM
[23] = RPMI 5 mM glucose + 10% dialyzed FBS, 0.000781 µM
[24] = RPMI 5 mM glucose + 10% dialyzed FBS, 0.00234 µM
[25] = RPMI 5 mM glucose + 10% dialyzed FBS, 0.00702 µM
[26] = RPMI 5 mM glucose + 10% dialyzed FBS, 0.0211 µM
[27] = RPMI 5 mM glucose + 10% dialyzed FBS, 0.0632 µM
[28] = RPMI 5 mM glucose + 10% dialyzed FBS, 0.19 µM
[29] = RPMI 5 mM glucose + 10% dialyzed FBS, 0.569 µM
[30] = RPMI 5 mM glucose + 10% dialyzed FBS, 1.71 µM
[31] = RPMI 5 mM glucose + 10% dialyzed FBS, 5.12 µM
[32] = RPMI 5 mM glucose + 10% dialyzed FBS, 15.4 µM
[33] = RPMI 5 mM glucose + 10% dialyzed FBS, 46.1 µM

Compound	cell viability [1] [%]	cell viability [2] [%]	cell viability [3] [%]	cell viability [4] [%]	cell viability [5] [%]	cell viability [6] [%]	cell viability [7] [%]	cell viability [8] [%]	cell viability [9] [%]	cell viability [10] [%]	cell viability [11] [%]	cell viability [12] [%]	cell viability [13] [%]	cell viability [14] [%]	cell viability [15] [%]	cell viability [16] [%]	cell viability [17] [%]	cell viability [18] [%]	cell viability [19] [%]	cell viability [20] [%]	cell viability [21] [%]	cell viability [22] [%]	cell viability [23] [%]	cell viability [24] [%]	cell viability [25] [%]	cell viability [26] [%]	cell viability [27] [%]	cell viability [28] [%]	cell viability [29] [%]	cell viability [30] [%]	cell viability [31] [%]	cell viability [32] [%]	cell viability [33] [%]
Cc1nc2c([nH]1)-c1ccccc1N(C(=O)c1ccc(NC(=O)c3ccccc3-c3ccccc3)cc1)CC2	91.3	115	90.8	123	114	122	123	115	113	128	124	123	120	100	138	129	129	141	163	128	149	118	111	143	108	131	140	160	130	121	127	166	124
CCOC(=O)c1ccc(C#Cc2ccc3c(c2)C(C)(C)CCS3)nc1	105	105	109	116	111	75.4	114	118	108	114	102	98	121	122	126	118	75.6	121	122	116	108	113	89.2	100	101	98.1	106	66.4	99.5	94.8	90	89.3	93.5
c1cc(-c2sc(-c3ccncc3)c(-c3ccncc3)c2-c2ccncc2)ccn1	90.9	107	108	110	106	116	107	82.4	43.3	20.7	14.9	89.6	87.8	93.9	89.3	106	97.9	101	63.5	29.6	17.9	13.2	102	101	118	113	106	110	103	67.3	41	22.4	15.1
Cn1cc(-c2ccc3ncc(Cc4ccc5ncccc5c4)n3n2)cn1	93.2	108	103	98.8	101	112	94.3	99.5	89.9	72.8	71	113	117	122	109	131	122	115	107	123	74	79.4	96.2	103	102	101	112	109	111	106	98.8	71.2	67.3
O=C1c2cccc(O)c2C(=O)c2c(O)cc(CO)cc21	101	97.7	107	119	111	34	110	105	102	97.4	109	105	103	99.9	110	93	45	101	84.2	92.3	103	103	102	97.2	100	91.7	91.2	45.1	85.9	86.4	94.2	92.6	85.3
COc1ccc(-c2nc3cc(C4=NNC(=O)CC4C)ccc3[nH]2)cc1 (stereo unspecified)	86.8	90.5	99.6	107	109	106	98.7	101	111	92.5	75.4	92.2	95.2	105	102	112	121	111	120	101	119	90.8	93.6	91.6	111	110	113	110	107	120	110	115	84.4
CCC(CC)[C@H](NC(C)=O)[C@@H]1[C@H](O)[C@@H](C(=O)O)C[C@H]1NC(=N)N	62	68	77.2	87.2	76.1	32.7	57.9	79.1	78.3	66.1	87.8	89.2	84.2	84.6	80.4	103	17.8	94.4	102	87.2	77.7	88.3	69.9	71.9	80.8	80.9	81.8	56.7	50.9	95.9	114	71.9	68.6
C[Se]CCC(N)C(=O)O (stereo unspecified)	50.5	87.2	86.1	94.7	75.6	71.3	82.8	71.5	86.4	78.1	72	65.1	83.9	107	95.4	89.8	95	85.9	88.5	103	100	98.1	51.5	100	96.6	94.4	73.1	101	90.4	84.1	94.2	100	88.7
CN(C)C(=O)COC(=O)Cc1ccc(OC(=O)c2ccc(NC(=N)N)cc2)cc1	107	113	122	112	125	126	119	119	112	118	61.2	102	110	126	117	130	126	139	130	114	107	61.7											
CC1(C)CC(=O)c2c(C(F)(F)F)nn(-c3ccc(C(N)=O)c(NC4CCC(OC(=O)CN)CC4)c3)c2C1 (stereo unspecified)	106	104	113	112	114	73.2	35.7	20.2	17	17.3	17.8	108	99.1	105	120	112	73.3	37.3	23.9	18.4	15.3	16.1	94.8	95.2	100	89.2	89.5	63.3	34.5	20.5	17.3	14.3	14.7
Cc1ccc(F)c(NC(=O)Nc2ccc(-c3cccc4[nH]nc(N)c34)cc2)c1	91.7	92.7	86.3	76.2	59.5	56.7	55.1	62.9	64.9	64.2	14.4	73.4	84.4	80.3	69.9	49.7	48.4	41.7	56	48.8	29.9	1.63	87.5	91.3	82.1	71.1	65.8	48.7	60.6	61.7	57.6	43.5	8.13
O=C1[O][Pt]2([NH]C3CCCCC3[NH]2)[O]C1=O (stereo unspecified)	95.9	110	102	107	105	108	101	91.5	27	3.68	4.13	74	77.5	69	66.6	83.8	84	81.7	60.3	15	2.66	2.68	84.7	97.5	104	114	108	102	118	91.3	42.6	3.5	3.34
CN1C(=O)COc2c(C(=O)NC3CN4CCC3CC4)cc(Cl)cc21 (stereo unspecified)	114	112	119	100	116	101	118	101	112	105	101	91.7	93.7	94	96.6	104	95.7	109	90.6	88.5	95.5	84.9	116	120	125	122	118	126	107	109	97.6	131	124
CNC(=O)c1cc(Oc2ccc(NC(=O)Nc3cc(C(C)(C)C)nn3-c3ccc4ncccc4c3)c(F)c2)ccn1	98.3	113	118	113	116	102	80.5	66.6	61.7	52.2	41.6	108	114	107	115	122	99.2	85.3	61.3	50.5	39.2	26.2											
CCC1=C(C)CN(C(=O)NCCc2ccc(S(=O)(=O)NC(=O)N[C@H]3CC[C@H](C)CC3)cc2)C1=O	78.7	91.5	93.2	93.3	86.4	104	103	109	114	104	116	81.1	92.2	95	85.5	93	92.6	94.8	100	94.7	92.6	94.7	94.9	87.6	101	86.2	93.7	94.8	96.1	87.7	94.3	96	94.1
Cc1c(OCC(F)(F)F)ccnc1C[S+]([O-])c1nc2ccccc2[nH]1 (stereo unspecified)	96.5	93.5	96.4	97.1	99	99.9	106	117	106	104	125	116	110	99.7	107	105	126	111	124	115	104	101	97.7	109	112	111	109	122	112	121	131	121	97.7
